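Values below derive from 48-hour exposures of cells grown in 96-well plates, with endpoints linearly interpolated between the two concentrations bracketing the appropriate inhibition level. Definition used: TGI = concentration required for complete inhibition of growth.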
Tests used:
Assay in all cases: DTP human tumour cell line panel, 48 h
[1] = tested on: SF-268 CNS
[2] = tested on: SNB-19 CNS
[3] = tested on: HCC-2998 colon
[4] = tested on: NCI-H23 lung
[5] = tested on: OVCAR-5 ovarian
[6] = tested on: MDA-MB-231 breast
[7] = tested on: UACC-62 melanoma
[8] = tested on: MALME-3M melanoma
[9] = tested on: CAKI-1 renal
[10] = tested on: UACC-257 melanoma

| SMILES | TGI [1] | TGI [2] | TGI [3] | TGI [4] | TGI [5] | TGI [6] | TGI [7] | TGI [8] | TGI [9] | TGI [10] |
| --- | --- | --- | --- | --- | --- | --- | --- | --- | --- | --- |
| COC1C(O)CC(OC2C(C)OC(Oc3cc(O)c4c(O)c5c(cc4c3)C[C@@H]([C@H](OC)C(=O)[C@@H](O)[C@@H](C)O)[C@H](OC3CC(OC4CC(OC6CC(C)(O)C(O)C(C)O6)C(O)C(C)O4)C(O)C(C)O3)C5=O)CC2OC(C)=O)OC1C (stereo not given in full) | > 100 µM | > 100 µM | > 100 µM | > 100 µM | > 100 µM | > 100 µM | > 100 µM | > 100 µM | > 100 µM |  |
| COC(=O)CCCc1ccc2c(c1)CC1(C2)Cc2cc3c(cc2C1)CCCC3 |  |  | 74.5 µM | > 100 µM | > 100 µM | > 100 µM | 67 µM | > 100 µM |  | > 100 µM |
| CN1CC2=C(OC(N)=C(C#N)C2c2cccs2)/C(=C/c2cccs2)C1 (stereo not given) | > 31.1 µM | > 100 µM | > 100 µM | > 100 µM | > 100 µM | > 100 µM | > 100 µM | 38.4 µM | > 100 µM | > 100 µM |
| CCN(CC)Cc1nc2sc3c(c2c(=O)n1-c1ccccc1)CCCC3 | 50.3 µM | > 100 µM | 33.6 µM | 81.2 µM | 63.1 µM | 30.4 µM | 30.4 µM | 45.5 µM | 56.9 µM | 47.5 µM |
| COc1ccc2c(c1)O[C@@H]1C(O)Oc3cc(OC)c(OC)cc3[C@]1(O)C2=O (stereo not given in full) | > 100 µM | > 100 µM |  | > 100 µM | > 100 µM | > 100 µM | > 100 µM |  | > 100 µM | > 100 µM |
| COc1ccc2nc3cc(Cl)ccc3c(NCCCCCC(=O)NC(COc3cnc4c(ccc5cccnc54)c3)COc3cnc4c(ccc5cccnc54)c3)c2c1 | 40.2 µM | > 100 µM | 27.9 µM | > 100 µM | > 100 µM | 44 µM | > 100 µM | > 100 µM | > 100 µM | 31.4 µM |
| CC(=O)NNc1nc(C)c(C(/C=C/c2ccc3c(c2)OCO3)=N/Nc2ccccc2)s1 | > 100 µM | > 100 µM | > 100 µM | > 100 µM | > 100 µM | > 100 µM | > 100 µM | > 100 µM | > 100 µM | > 100 µM |
| Cc1ccc(C)n2c1nc1ccc3ccccc3c12 | > 100 µM | > 100 µM | > 100 µM | > 100 µM | > 100 µM |  | > 100 µM | > 100 µM |  | > 100 µM |
| COc1cc(OC)c2c(O)cc(CC(C)O)cc2c1 (stereo not given) | > 100 µM | > 100 µM | > 100 µM | > 100 µM | > 100 µM |  | > 100 µM | > 100 µM | > 100 µM | > 100 µM |
| COc1ccc2[nH]c3c(c2c1)CCN(C)CC3 | > 100 µM | > 100 µM | > 100 µM | > 100 µM | > 100 µM |  | > 100 µM | > 100 µM | > 100 µM | > 100 µM |
| CCC(C)[C@H](NC(=O)N[C@H](C)c1ccccc1)C(=O)OC (stereo not given in full) |  | > 100 µM | > 100 µM | > 100 µM | > 100 µM | > 100 µM | > 100 µM |  | > 100 µM | > 100 µM |
| CC1OC(OCC2OC(Oc3c(-c4ccc(O)cc4)oc4cc(O)cc(O)c4c3=O)C(OC3OCC(O)(CO)C3O)C(O)C2O)C(O)C(O)C1O (stereo not given) | > 100 µM | > 100 µM | > 100 µM | > 100 µM | > 100 µM |  | > 100 µM | > 100 µM | > 100 µM | > 100 µM |
| CCNC(=O)Nc1cccc(C)n1 | > 100 µM | > 100 µM | > 100 µM | > 100 µM | > 100 µM | > 100 µM | > 100 µM | > 100 µM | > 100 µM | > 100 µM |
| CCC(CCCN)Nc1cc(OC)cc2cccnc12 (stereo not given) | > 100 µM | > 100 µM | 52.7 µM |  | > 100 µM | > 100 µM | > 100 µM | > 100 µM | > 100 µM | 62.8 µM |
| S=C1c2ccccc2NC(=NC2CCCC2)C2CSCN12 (stereo not given) | > 100 µM | > 100 µM | > 100 µM |  | > 100 µM | > 100 µM | > 100 µM | > 100 µM | > 100 µM | > 100 µM |
| C=CCC(C)C12CCNC(Cc3ccc(O)cc31)C2C (stereo not given) | > 100 µM | > 100 µM | > 100 µM | > 100 µM | > 100 µM | > 100 µM | > 100 µM | > 100 µM |  | > 100 µM |
| Cc1ccc([N+](=O)[O-])cc1S(=O)(=O)Nc1ccc(C2=NN(c3ccc([N+](=O)[O-])cc3[N+](=O)[O-])C(c3ccccc3)C2)cc1 (stereo not given) | 28 µM | 33 µM |  | 31.5 µM | 50.1 µM | 33.4 µM |  | 41.6 µM | > 100 µM | 40.7 µM |
| COC(=O)C12Oc3ccc(-c4ccc5c(c4O)C(=O)C4=CCC(C)C(O)C4(C(=O)OC)O5)c(O)c3C(=O)C1=CCC(C)C2O (stereo not given) | 3.57 µM |  | 2.6 µM | 2.83 µM | 3.98 µM |  | 2.82 µM | 3.28 µM | 4.7 µM | 4.95 µM |
| Brc1ccc(N=NN2CCCCC2)cc1 | > 100 µM | > 100 µM |  | > 100 µM | > 100 µM | > 100 µM | > 100 µM |  | > 100 µM | > 100 µM |
| CC(=O)C1CC(C)=CCC12C(=O)Nc1ccccc12 (stereo not given) | > 100 µM | > 100 µM | > 100 µM | > 100 µM | > 100 µM |  | > 100 µM | > 100 µM | > 100 µM |  |
| CC(=O)C(C(C)=O)=C1CCCC(O)O1 (stereo not given) | > 100 µM | > 100 µM | > 100 µM | > 100 µM | > 100 µM | > 100 µM | > 100 µM | > 100 µM |  | > 100 µM |
| O=c1c2ccccc2[nH]c(=S)n1-c1ccc(Br)cc1 | > 100 µM | > 100 µM | > 100 µM | > 100 µM |  |  |  | > 100 µM |  | > 100 µM |
| CCc1cccc(C(C)C)c1NC(=O)C(=O)C(Cc1nc2ccccc2[nH]c1=O)C(=O)OC (stereo not given) | > 100 µM | > 100 µM | > 100 µM | > 100 µM | > 100 µM |  | > 100 µM | > 100 µM | > 100 µM | > 100 µM |
